The text below walks through data of US11324725B2, “Compositions and methods for the inhibition of pruritus” (The United States of America, as represented by the …, priority 2017, dated 2022).

For this test, the target named is T1, mNpr1 (Mus musculus, UniProt P18293).
T1 construct: host or cells: HEK-293, transient co-transfection with pGS-40F
T1 sequence (P18293 29-1057): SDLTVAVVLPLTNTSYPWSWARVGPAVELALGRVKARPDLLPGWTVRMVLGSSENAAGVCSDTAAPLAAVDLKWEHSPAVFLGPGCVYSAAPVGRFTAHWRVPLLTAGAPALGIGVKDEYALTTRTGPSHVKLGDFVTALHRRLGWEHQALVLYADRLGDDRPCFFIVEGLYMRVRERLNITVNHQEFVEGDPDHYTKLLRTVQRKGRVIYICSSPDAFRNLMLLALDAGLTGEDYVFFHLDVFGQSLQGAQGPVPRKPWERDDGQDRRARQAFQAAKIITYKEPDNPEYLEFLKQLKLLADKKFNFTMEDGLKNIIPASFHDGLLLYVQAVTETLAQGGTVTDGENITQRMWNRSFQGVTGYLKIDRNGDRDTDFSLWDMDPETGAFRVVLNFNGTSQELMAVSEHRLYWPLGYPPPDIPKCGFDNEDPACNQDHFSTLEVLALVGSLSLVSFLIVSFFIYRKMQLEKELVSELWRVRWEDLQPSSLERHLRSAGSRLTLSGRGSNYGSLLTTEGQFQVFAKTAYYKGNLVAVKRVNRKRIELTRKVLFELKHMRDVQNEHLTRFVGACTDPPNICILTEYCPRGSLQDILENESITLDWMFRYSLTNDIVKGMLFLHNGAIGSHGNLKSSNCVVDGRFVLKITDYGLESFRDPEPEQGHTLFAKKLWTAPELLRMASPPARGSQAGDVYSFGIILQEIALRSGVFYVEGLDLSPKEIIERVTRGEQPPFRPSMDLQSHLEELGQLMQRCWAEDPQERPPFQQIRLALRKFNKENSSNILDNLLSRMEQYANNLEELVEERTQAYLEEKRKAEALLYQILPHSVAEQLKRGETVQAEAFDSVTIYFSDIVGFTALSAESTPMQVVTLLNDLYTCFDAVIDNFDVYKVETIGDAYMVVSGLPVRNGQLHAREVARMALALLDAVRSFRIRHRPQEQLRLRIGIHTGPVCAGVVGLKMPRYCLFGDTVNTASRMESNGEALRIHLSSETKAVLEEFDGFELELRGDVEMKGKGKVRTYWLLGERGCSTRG
Kind of test: GloSensor assay, HEK-293 cells transiently expressing mNpr1 and pGS-40F. Format: cell-based. Particulars: for IC50: 1 nM mNppb 5 minutes after compound, read-out: IC50 [μM] (mean ± SEM), mNpr1; for Ki: calculated with Cheng-Prusoff equation from Table 6, read-out: Ki mNpr1 GloSensor™ [μM] (mean ± SEM). As for the experimental part: HEK-293 cells (American Type Culture Collection “ATTC,” Manassas, Va.) were cultured in DMEM/F12 supplemented with 2 mM L-glutamine, 10% FBS, 100 U/ml penicillin, and 100 μg/ml streptomycin. For transient expression, 8×10^5 cells were seeded in 6-wells, cultured for 24 hours, and then transfected using TransIT®-293 (Mirus, Madison, Wis.) according to the manufacturer's instructions. After transfection (48 hours), cells were used to measure intracellular cGMP production. HEK-293 cell clones stably expressing pGloSensor™-40F alone (HEK-cGMP-sensor cells) or in addition, human Npr1 (“hNpr1”) (HEK-hNpr1-cGMP-sensor cells) or human Npr2 (HEK-hNpr2-cGMP-sensor cells) were generated by co-transfection with pEAK8-GFP and selection with 1 μg/ml puromycin. Stable expression of transgenes was verified by measuring ligand-induced cGMP production with the cGMP biosensor.
Before the measurement (24 hours in advance), 3×10^4 cells were seeded into white 96-well plates (PerkinElmer, Waltham, Mass.), coated with 0.1% poly(D-lysine), and assays conducted as recommended by the manufacturer (Promega). Medium was aspirated and cells were loaded for two hours at room temperature with 2% GoSensor™ reagent diluted in CO2-independent media (ThermoFisher) supplemented with 2 mM L-glutamine and 10% FBS (assay medium). Luminescence was measured on a BioTek Synergy™ NEO (Winooski, Vt.) plate reader at room temperature. After a baseline measurement of 3-5 minutes, assay medium as a control or assay medium with agonist was manually added, and luminescence was measured for 30 minutes at ˜ 1/60 Hz. For compounds tested for Npr1 and Npr2 inhibition, the compounds were added after baseline measurements, and luminescence was read for 5 minutes before addition of agonist. Luminescence was then normalized to baseline measurements and plotted against the time. Ligand-induced changes of cGMP production were quantified by determining the area under the curve. To determine efficacy and potency of agonists, ligand-induced changes were normalized to medium only addition and plotted against the ligand concentration. […] To quantify […] of compounds, compound-induced changes of agonist-induced cGMP production were normalized to vehicle controls, plotted against compound concentration, and fit with a four-parameter logistic regression. Effects of A-71915 on basal mNpr1 activity were fitted with a bell-shaped regression (equation indicated below).
Because the Npr1 receptor is a ligand-dependent guanylate cyclase, measuring agonist-induced changes in intracellular cGMP levels was used to examine inhibition of Npr1. To measure the production of cGMP by Npr1, a circular permutated Firefly luciferase molecule which was functionally linked to the cGMP binding domain of human PDE5 (GloSensor™ technology pGS-40F) was used, as described in Example 1. This reporter molecule together with a luciferase substrate (GoSensor™ reagent) and a sensitive method for detection of luciferase activity (emitted light) permitted real-time measurement of cGMP levels in live cells (FIG. 1A). The cGMP sensor was expressed in HEK293 cells and luciferase activity after stimulation with the NO-donor sodium nitroprusside (SNP), which activates ubiquitously expressed soluble guanylate cyclases, was examined. […] Next, mNpr1 and the cGMP sensor were transiently expressed in HEK293 cells and agonist dependent receptor activation was examined. […] Next, the effects of A-71915 on mNpr1 were tested.
For Table 6, HEK-293 cells transiently expressing mNpr1 and pGS-40F were stimulated with 1 nM mNppb 5 minutes after addition of candidate compounds or A-71915 and luminescence was measured for 30 minutes. Inhibitors were titrated to calculate apparent IC50 values, as described in methods.

`CCC(CC)c1cc([C@H]2CN3CC[C@H]2C[C@@H]3CNS(=O)(=O)c2cccs2)nc(-c2ccncc2)n1` [JS-3, N-(((2R,4S,5R)-5-(6-(pentan-3-yl)-2-(pyridin-4-yl)pyrimidin-4-yl)quinuclidin-2-yl)methyl)thiophene-2-sulfonamide]: the IC50 (as a rule, the point on the concentration scale where inhibition reaches its midpoint) was 12 ± 1.8 µM; the Ki (usually the dissociation constant of the complex between target and ligand, obtained from inhibition or displacement) is 0.25 ± 0.036 µM.

Take `COc1cc(CN2CCC(C)(NC(C)=O)CC2)cc(-c2ccncc2)c1` [JS-4, N-(1-(3-methoxy-5-(pyridin-4-yl)benzyl)-4-methylpiperidin-4-yl)acetamide]: the IC50 was found to be 11 ± 3.4 µM and the Ki is 0.22 ± 0.07 µM.

With `Cc1noc(C)c1-c1cc(-c2ccccc2Oc2ccccc2)cn2cncc12` [JS-5, 3,5-dimethyl-4-(6-(2-phenoxyphenyl)imidazo[1,5-a]pyridin-8-yl)isoxazole], the IC50 worked out at 20 ± 12 µM and the Ki is 0.42 ± 0.265 µM.

For `COc1ccccc1-c1n[nH]c2ncc(C(=O)NCc3cccnc3)nc12` [JS-6, 3-(2-methoxyphenyl)-N-(pyridin-3-ylmethyl)-1H-pyrazolo[3,4-b]pyrazine-5-carboxamide], the IC50 was found to be 82 ± 68 µM and the Ki is 1.69 ± 1.39 µM.

On to `Cc1nn2c(c1-c1ccccc1OCc1ccccc1)N(C(=O)Cc1ccc3c(c1)OCO3)CCC2` [JS-8, 2-(benzo[d][1,3]dioxol-5-yl)-1-(3-(2-(benzyloxy)phenyl)-2-methyl-6,7-dihydropyrazolo[1,5-a]pyrimidin-4(5H)-yl)ethan-1-one], for which the IC50 came to 4.7 ± 0.3 µM and the Ki is 0.1 ± 0.006 µM.

For `Cc1nn2c(c1-c1ccccc1OCc1ccccc1)N(C(=O)Cc1ccccn1)CCC2` [JS-9, 1-(3-(2-(benzyloxy)phenyl)-2-methyl-6,7-dihydropyrazolo[1,5-a]pyrimidin-4(5H)-yl)-2-(pyridin-2-yl)ethan-1-one], the IC50 was determined as 28 µM and the Ki was 0.57 ± 0.0004 µM.

`Cc1nn2c(c1-c1ccccc1Oc1ccccc1)N(C(=O)Cc1ccc3c(c1)OCO3)CCC2` [JS-10, 2-(benzo[d][1,3]dioxol-5-yl)-1-(2-methyl-3-(2-phenoxyphenyl)-6,7-dihydropyrazolo[1,5-a]pyrimidin-4(5H)-yl)ethan-1-one]: the IC50 was found to be 15 ± 1.8 µM and the Ki is 0.31 ± 0.037 µM.

Consider `Cc1cc(CNC(=O)c2ccc3c(c2)n(CC2CC2)c(=O)n3C2CCCCC2)on1` [JS-11, 1-cyclohexyl-3-(cyclopropylmethyl)-N-((3-methylisoxazol-5-yl)methyl)-2-oxo-2,3-dihydro-1H-benzo[d]imidazole-5-carboxamide], for which the IC50 was 4.9 ± 1.5 µM and the Ki is 0.1 ± 0.03 µM.

On to `COc1ccc(C2(C(=O)N3CCC4(CC3)c3nccn3-c3ccccc3CN4C)CC2)cc1` [JS-12, (1-(4-methoxyphenyl)cyclopropyl)(5-methyl-5,6-dihydrospiro[benzo[f]imidazo[1,2-a][1,4]diazepine-4,4′-piperidin]-1′-yl)methanone], for which the IC50 amounted to 13 ± 0.3 µM and the Ki was 0.26 ± 0.006 µM.

For `N#Cc1ccccc1CN1CCCC(C(=O)NCc2ccccc2)CCNC(=O)CC1` (stereo not shown) [JS-13, N-benzyl-1-(2-cyanobenzyl)-4-oxo-1,5-diazacycloundecane-8-carboxamide], the IC50 is 10 ± 2.2 µM and the Ki was 0.21 ± 0.046 µM.

For the compound `CN(Cc1ccccc1)C(=O)c1cn2ccnc(-c3ccccc3)c2n1` [JS-14, N-benzyl-N-methyl-8-phenylimidazo[1,2-a]pyrazine-2-carboxamide], the IC50 was determined as 15.8 ± 16 µM and the Ki was 0.32 ± 0.329 µM.
